Experimental data: patent EP2255813A1, “Derivatives of ursodeoxycholic acid for the treatment of diarrhoea” (The Royal College of Surgeons in Ireland, priority 2009, dated 2010)

Tested on: T84 cells
Test: Cl^- secretion measured as short-circuit current (Isc) across T84 cell monolayers in Ussing chambers
Type: cell-based
Procedure: Materials and Methods: Cultured T84 epithelial cells were employed as a model of the colonic epithelium. T84 cells were grown as monolayers on filter supports. When grown in this way T84 cells retain many of the characteristics of native intestinal epithelium and are widely considered as being among the best reductionist models for analysing intestinal epithelial secretory responses. T84 cell monolayers were mounted in Ussing chambers, and voltage-clamped to zero potential difference. Under these conditions, transepithelial ion transport can be measured as changes in short-circuit current (Isc) and such changes in Isc across T84 cells have been established as wholly due to Cl^- ion secretion. […]

Molecule | secretory responses to CCh (100µM and 500µM for 15 minutes before CCh (100µM) (Figure 7)) | secretory responses to FSK (100µM and 500µM for 15 minutes before FSK (10µM) (Figure 7)) | minimal effective concentration (Homo sapiens, responses to CCh, T84 cells (Figure 3B), read-out: concentration at which antisecretory effects are apparent)
6-methyl-UDCA [MUDCA] | inhibited secretory responses to both CCh and FSK | inhibited secretory responses to both CCh and FSK | 
C[C@H](CCC(=O)O)[C@H]1CC[C@H]2[C@@H]3[C@@H](O)C[C@@H]4C[C@H](O)CC[C@]4(C)[C@H]3CC[C@]12C [UDCA, ursodeoxycholic acid] |  |  | 50 µM
